Experiments:
[1] = Pooled metabolic analysis, 6-week studies: lipid profile; conditions: endpoint, 6-week studies, BX total, OLZ 15 mg
Text: (§1) OBJECTIVE: To examine the metabolic effects of bifeprunox in patients with acute and stable schizophrenia.
(§2) METHODS: Metabolic data was compiled from one 6-month and four 6-week studies (i.e., a treatment period) of bifeprunox in patients with stable and acute schizophrenia, respectively. In the 6-month study, patients received bifeprunox (n=331) or placebo (PBO) (n=166). […] Metabolic evaluations included body weight, body mass index (BMI), plasma glucose and lipid profiles. Fasting glucose and lipid values were assessed in one 6-week study and in the 6-month study. Triglyceride:HDL ratio (TG:HDL) was calculated as a marker of insulin resistance. No statistical analyses were performed; only descriptive statistics are presented.

[2] = Pooled metabolic analysis, 6-week studies: body weight; conditions: 6-week placebo controlled trials, BX total doses, RISP 6 mg, OLZ 15 mg, HAL 10 mg; for Weight, Mean (SD) change from baseline: endpoint
Text: as §1, §2

CYP2C9, CYP3A4, CYP2D6 = assay: Metabolism and drug interactions of bifeprunox; conditions: in vivo
Text: The objective of this study is to assess the pharmacokinetics (PK) of bifeprunox. The PK of bifeprunox in healthy subjects were investigated based on a pooled analysis of PK parameters from 21 clinical pharmacology studies. The pooled analysis included PK profiles after single and multiple doses to 132 and 399 subjects, respectively, and explored the potential effects of age, gender, body weight, and race. In addition, PK in patients with schizophrenia were investigated using a population PK approach based on samples from 376 patients in phase II studies and 434 patients in phase III studies.

[3] = Pharmacokinetic interaction of lithium and bifeprunox in healthy male subjects; assay type: in vivo, human
Description: Because bifeprunox may be used in combination with the mood-stabilizing drug lithium for the treatment of patients with psychoses and mood disorders, the effect of multiple doses of bifeprunox on the pharmacokinetic (PK) profile of lithium was evaluated. Lithium has a narrow therapeutic index that can complicate therapy, and serum levels greater than 1.5 mmol/L carry a greater risk of lithium toxicity than do lower levels.
METHODS: This was a single center, double-blind, randomized, placebo-controlled, parallel-design study in 48 healthy male subjects. All subjects were to receive open-label lithium (450 mg) twice daily on days 1 through 8 and, provided serum levels were stable on days 5 through 7, again on days 9 through 20. Subjects whose serum levels were stable on days 5 through 7 were included in those randomized to receive, in addition to lithium 450 mg twice daily, either placebo or a rising dose of bifeprunox (0.025-40 mg) once daily on days 9 through 17, and placebo or bifeprunox 40 mg on days 18 through 21. Only a single morning dose of lithium 450 mg was administered on day 21. Lithium, steady-state Cmax, AUC over the dosing interval (0-t), and renal clearance (CL-R) values were compared between the bifeprunox and placebo groups using ANCOVA with baseline values of lithium measured on day 8 as covariate.

[4] = non-fasting, RISP 6 mg, HAL 10 mg
[5] = lithium 450 mg twice daily with bifeprunox up to 40 mg once daily, healthy male subjects

O=C(CCCN1CCC(O)(c2ccc(Cl)cc2)CC1)c1ccc(F)cc1 [HAL]
Total cholesterol, Mean change (SD) [1, 4]: 0.1 (0.7) mg/dL
Triglycerides, Mean change (SD) [1, 4]: −2.7 (0.6) mg/dL
≧7% weight decrease, (%) ([2]; baseline BMI 18.5-25 kg/m^2): 3.6%
≧7% weight increase, (%) ([2]; baseline BMI 18.5-25 kg/m^2): 7.1%
≧7% weight decrease, (%) ([2]; baseline BMI All): 2.0%
≧7% weight increase, (%) ([2]; baseline BMI All): 4.0%
Weight, Mean (SD) change from baseline ([2]; baseline BMI 18.5-25 kg/m^2): −0.0 (2.2) kg
Weight, Mean (SD) change from baseline ([2]; baseline BMI <18.5 kg/m^2): 1.4 (1.3) kg
Weight, Mean (SD) change from baseline ([2]; baseline BMI >25-30 kg/m^2): −1.1 (1.8) kg
Weight, Mean (SD) change from baseline ([2]; baseline BMI >30 kg/m^2): 0.4 (2.1) kg
Weight, Mean (SD) change from baseline ([2]; baseline BMI All): −0.1 (2.1) kg

Cc1cc2c(s1)Nc1ccccc1N=C2N1CCN(C)CC1 [OLZ]
Fasting HDL, Mean change (SD) ([1]; fasting): −1.4 (9.2) mg/dL
Fasting HDL, Percentage mean change ([1]; fasting): −2.9%
Fasting LDL, Mean change (SD) ([1]; fasting): −0.3 (28.6) mg/dL
Fasting LDL, Percentage mean change ([1]; fasting): −0.3%
Total cholesterol, Mean change (SD) ([1]; fasting): −4.0 (37.3) mg/dL
Total cholesterol, Percentage mean change ([1]; fasting): −2.0%
Triglycerides, Mean change (SD) ([1]; fasting): −9.2 (90.4) mg/dL
Triglycerides, Percentage mean change ([1]; fasting): −5.3%
Total cholesterol, Mean change (SD) [1, 4]: −0.7 (1.0) mg/dL
Triglycerides, Mean change (SD) [1, 4]: 24.6 (1.3) mg/dL
≧7% weight increase, (%) ([2]; baseline BMI 18.5-25 kg/m^2): 22.7%
≧7% weight increase, (%) ([2]; baseline BMI <18.5 kg/m^2): 18.8%
≧7% weight increase, (%) ([2]; baseline BMI >25-30 kg/m^2): 13.2%
≧7% weight increase, (%) ([2]; baseline BMI >30 kg/m^2): 14.6%
Weight, Mean (SD) change from baseline ([2]; baseline BMI 18.5-25 kg/m^2): 2.1 (2.7) kg
Weight, Mean (SD) change from baseline ([2]; baseline BMI <18.5 kg/m^2): 1.0 (1.9) kg
Weight, Mean (SD) change from baseline ([2]; baseline BMI >25-30 kg/m^2): 2.3 (2.5) kg
Weight, Mean (SD) change from baseline ([2]; baseline BMI >30 kg/m^2): 3.3 (4.0) kg
Weight, Mean (SD) change from baseline ([2]; baseline BMI All): 2.4 (3.1) kg

Cc1nc2n(c(=O)c1CCN1CCC(c3noc4cc(F)ccc34)CC1)CCCC2 [RISP]
Total cholesterol, Mean change (SD) [1, 4]: −2.6 (0.8) mg/dL
Triglycerides, Mean change (SD) [1, 4]: −7.4 (1.4) mg/dL
≧7% weight increase, (%) ([2]; baseline BMI 18.5-25 kg/m^2): 7.3%
≧7% weight increase, (%) ([2]; baseline BMI <18.5 kg/m^2): 20.0%
≧7% weight increase, (%) ([2]; baseline BMI >25-30 kg/m^2): 13.3%
≧7% weight decrease, (%) ([2]; baseline BMI >30 kg/m^2): 1.2%
≧7% weight increase, (%) ([2]; baseline BMI >30 kg/m^2): 8.5%
≧7% weight decrease, (%) ([2]; baseline BMI All): 0.4%
≧7% weight increase, (%) ([2]; baseline BMI All): 9.8%
Weight, Mean (SD) change from baseline ([2]; baseline BMI 18.5-25 kg/m^2): 1.5 (2.2) kg
Weight, Mean (SD) change from baseline ([2]; baseline BMI <18.5 kg/m^2): 0.9 (2.3) kg
Weight, Mean (SD) change from baseline ([2]; baseline BMI >25-30 kg/m^2): 2.1 (3.2) kg
Weight, Mean (SD) change from baseline ([2]; baseline BMI >30 kg/m^2): 1.6 (4.2) kg
Weight, Mean (SD) change from baseline ([2]; baseline BMI All): 1.7 (3.3) kg

[Li] [lithium]
PK of narrow therapeutic index compound on co-administration with bifeprunox (CYP2C9, CYP3A4, CYP2D6): did not affect the PK of these compounds to any relevant extent
effect of co-administration of multiple doses of bifeprunox on lithium steady-state pharmacokinetics ([3]; human, in vivo): no clinically relevant effect
lithium renal clearance CL-R, treatment ratio (bifeprunox vs placebo group, geometric least square means) [3, 5]: 0.94
lithium steady-state AUC(0-t), treatment ratio (bifeprunox vs placebo group, geometric least square means) [3, 5]: 1.13
lithium steady-state Cmax, treatment ratio (bifeprunox vs placebo group, geometric least square means) [3, 5]: 1.11

CC(=O)CC(c1ccccc1)c1c(O)c2ccccc2oc1=O (centres unmarked) [warfarin, reference compound]
PK of narrow therapeutic index compound on co-administration with bifeprunox (CYP2C9, CYP3A4, CYP2D6): did not affect the PK of these compounds to any relevant extent

From patent publication US20090068290A1, “BIFEPRUNOX DOSES FOR TREATING SCHIZOPHRENIA” (priority 2006, published 2009)
